Like-named read-outs stand apart in the source and are kept apart here.
Experiments:
ROCK-II = target: T1, ROCK-II (Homo sapiens, UniProt O75116); assay: Kinome profiler screen; assay type: biochemical; details: at 20,000 nM inhibitor; kinase activity remaining
T1 construct: purchased Millipore KinaseProfiler

CDK7/cyclinH/MAT1 = target: T2, CDK7/cyclinH/MAT1 (Homo sapiens, UniProt P50613); assay: Kinome profiler screen; assay type: biochemical; details: at 20,000 nM inhibitor; kinase activity remaining
T2 construct: purchased Millipore KinaseProfiler

c-RAF = target: T3, c-RAF (Homo sapiens, UniProt P04049); assay: Kinome profiler screen; assay type: biochemical; details: for activity at 20 µM: at 20,000 nM inhibitor, kinase activity remaining
T3 construct: purchased Millipore

IKKα = target: T4, IKKα (Homo sapiens, UniProt O15111); assay: Kinome profiler screen; assay type: biochemical; details: at 20,000 nM inhibitor; kinase activity remaining
T4 construct: purchased Millipore KinaseProfiler

ULK3 = target: T5, ULK3 (Homo sapiens, UniProt Q6PHR2); assay: Kinome profiler screen; assay type: biochemical; details: at 20,000 nM inhibitor; kinase activity remaining
T5 construct: purchased Millipore KinaseProfiler

PIP5K1γ = target: T6, PIP5K1γ (Homo sapiens, UniProt O60331); assay: Kinome profiler screen; assay type: biochemical; details: at 20,000 nM inhibitor; kinase activity remaining
T6 construct: purchased Millipore KinaseProfiler

ULK2 = target: T7, ULK2 (Homo sapiens, UniProt Q8IYT8); assay: Kinome profiler screen; assay type: biochemical; details: at 20,000 nM inhibitor; kinase activity remaining
T7 construct: purchased Millipore KinaseProfiler

GSK3α = target: T8, GSK3α (Homo sapiens, UniProt P49840); assay: Kinome profiler screen; assay type: biochemical; details: at 20,000 nM inhibitor; kinase activity remaining
T8 construct: purchased Millipore KinaseProfiler

[1] = Dose escalation adverse event screen (SHIRPA based); assay type: in vivo; details: highest dose at which no adverse events are observed in dose escalation studies, mice
Source text: Novel compounds were screened in vivo using a standard dose escalation screen in mice coupled with clinical observation and testing based on the SHIRPA mouse phenotype assay paradigm. To obtain insight into the potential for off-target activity with the largest known family of small molecule drug targets, G-protein coupled receptors (GPCRs), a cell-based functional screen of the final title compounds was done. The Millipore® GPCR Profiler screen employs the ChemiScreen GPCR stable cell line technology used for real-time calcium flux FLIPR assays on a panel of 158 GPCRs to detect both antagonists and agonists. The NCBI Entrez identifier for each GPCR is provided at the vendor site (www.millipore.com). Follow-up validation of any initial hits as being true positives or negatives was done as described above for protein kinases by testing the concentration dependence of any cellular effects. No validated hits were detected.

MSSK1 = target: T9, MSSK1 (Homo sapiens, UniProt Q9UPE1); assay: Kinome profiler screen; assay type: biochemical; details: at 20,000 nM inhibitor; kinase activity remaining
T9 construct: purchased Millipore KinaseProfiler

PRAK = target: T10, PRAK (Homo sapiens, UniProt Q8IW41); assay: Kinome profiler screen; assay type: biochemical; details: at 20,000 nM inhibitor; kinase activity remaining
T10 construct: purchased Millipore KinaseProfiler

ALK4 = target: T11, ALK4 (Homo sapiens, UniProt P36896); assay: Kinome profiler screen; assay type: biochemical; details: at 20,000 nM inhibitor; kinase activity remaining
T11 construct: purchased Millipore KinaseProfiler

Ret (V804L) = target: T12, Ret (V804L) (Homo sapiens, UniProt P07949, V804L); assay: Kinome profiler screen; assay type: biochemical; details: at 20,000 nM inhibitor; kinase activity remaining
T12 construct: purchased Millipore KinaseProfiler

EphB3 = target: T13, EphB3 (Homo sapiens, UniProt P54753); assay: Kinome profiler screen; assay type: biochemical; details: at 20,000 nM inhibitor; kinase activity remaining
T13 construct: purchased Millipore KinaseProfiler

Haspin = target: T14, Haspin (Homo sapiens, UniProt Q8TF76); assay: Kinome profiler screen; assay type: biochemical; details: at 20,000 nM inhibitor; kinase activity remaining
T14 construct: purchased Millipore KinaseProfiler

Tie2 = target: T15, Tie2 (Homo sapiens, UniProt Q02763); assay: Kinome profiler screen; assay type: biochemical; details: at 20,000 nM inhibitor; kinase activity remaining
T15 construct: purchased Millipore KinaseProfiler

HIPK2 = target: T16, HIPK2 (Homo sapiens, UniProt Q9H2X6); assay: Kinome profiler screen; assay type: biochemical; details: at 20,000 nM inhibitor; kinase activity remaining
T16 construct: purchased Millipore KinaseProfiler

eEF-2K = target: T17, eEF-2K (Homo sapiens, UniProt O00418); assay: Kinome profiler screen; assay type: biochemical; details: at 20,000 nM inhibitor; kinase activity remaining
T17 construct: purchased Millipore KinaseProfiler

Pyk2 = target: T18, Pyk2 (Homo sapiens, UniProt Q14289); assay: Kinome profiler screen; assay type: biochemical; details: at 20,000 nM inhibitor; kinase activity remaining
T18 construct: purchased Millipore KinaseProfiler

BrSK1 = target: T19, BrSK1 (Homo sapiens, UniProt Q8TDC3); assay: Kinome profiler screen; assay type: biochemical
T19 construct: purchased Millipore KinaseProfiler

PIP4K2α = target: T20, PIP4K2α (Homo sapiens, UniProt P48426); assay: Kinome profiler screen; assay type: biochemical; details: at 20,000 nM inhibitor; kinase activity remaining
T20 construct: purchased Millipore KinaseProfiler

Tie2(R849W) = target: T21, Tie2(R849W) (Homo sapiens, UniProt Q02763, R849W); assay: Kinome profiler screen; assay type: biochemical; details: at 20,000 nM inhibitor; kinase activity remaining
T21 construct: purchased Millipore KinaseProfiler

Blk(m) = target: T22, Blk(m) (Mus musculus, UniProt P16277); assay: Kinome profiler screen; assay type: biochemical; details: at 20,000 nM inhibitor; kinase activity remaining
T22 construct: purchased Millipore KinaseProfiler

FGFR3 = target: T23, FGFR3 (Homo sapiens, UniProt P22607); assay: Kinome profiler screen; assay type: biochemical; details: at 20,000 nM inhibitor; kinase activity remaining
T23 construct: purchased Millipore KinaseProfiler

Ron = target: T24, Ron (Homo sapiens, UniProt Q04912); assay: Kinome profiler screen; assay type: biochemical; details: at 20,000 nM inhibitor; kinase activity remaining
T24 construct: purchased Millipore KinaseProfiler

Ret = target: T25, Ret (Homo sapiens, UniProt P07949); assay: Kinome profiler screen; assay type: biochemical; details: at 20,000 nM inhibitor; kinase activity remaining
T25 construct: purchased Millipore KinaseProfiler

NLK = target: T26, NLK (Homo sapiens, UniProt Q9UBE8); assay: biochemical
T26 sequence (Q9UBE8 1-527): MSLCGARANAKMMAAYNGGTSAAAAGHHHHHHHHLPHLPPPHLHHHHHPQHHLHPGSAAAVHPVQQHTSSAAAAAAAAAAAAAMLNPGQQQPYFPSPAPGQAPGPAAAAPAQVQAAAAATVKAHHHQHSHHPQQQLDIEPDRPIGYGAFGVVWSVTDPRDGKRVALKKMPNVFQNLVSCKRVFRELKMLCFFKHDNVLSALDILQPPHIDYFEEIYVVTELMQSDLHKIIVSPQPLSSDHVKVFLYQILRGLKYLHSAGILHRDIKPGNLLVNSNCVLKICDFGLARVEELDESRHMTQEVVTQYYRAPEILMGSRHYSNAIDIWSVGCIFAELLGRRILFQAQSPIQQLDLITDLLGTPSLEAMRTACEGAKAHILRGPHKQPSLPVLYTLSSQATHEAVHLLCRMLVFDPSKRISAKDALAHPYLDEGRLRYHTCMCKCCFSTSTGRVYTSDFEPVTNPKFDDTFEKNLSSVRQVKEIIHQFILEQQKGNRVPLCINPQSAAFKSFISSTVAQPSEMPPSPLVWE

Pim-2 = target: T27, Pim-2 (Homo sapiens, UniProt Q9P1W9); assay: Kinome profiler screen; assay type: biochemical; details: at 20,000 nM inhibitor; kinase activity remaining
T27 construct: purchased Millipore KinaseProfiler

Lyn = target: T28, Lyn (Homo sapiens, UniProt P07948); assay: Kinome profiler screen; assay type: biochemical; details: at 20,000 nM inhibitor; kinase activity remaining
T28 construct: purchased Millipore KinaseProfiler

reference memory = assay: 2-day radial arm water maze (RAWM), Aβ42-infused mice; assay type: in vivo, C57BL/6J mice; details: 5 mg/Kg i.p.
Flt1 = target: T29, Flt1 (Homo sapiens, UniProt P17948); assay: Kinome profiler screen; assay type: biochemical; details: for activity at 20 µM: at 20,000 nM inhibitor, kinase activity remaining
T29 construct: purchased Millipore

CSK = target: T30, CSK (Homo sapiens, UniProt P41240); assay: Kinome profiler screen; assay type: biochemical; details: at 20,000 nM inhibitor; kinase activity remaining
T30 construct: purchased Millipore KinaseProfiler

T29 sequence (P17948 27-1338): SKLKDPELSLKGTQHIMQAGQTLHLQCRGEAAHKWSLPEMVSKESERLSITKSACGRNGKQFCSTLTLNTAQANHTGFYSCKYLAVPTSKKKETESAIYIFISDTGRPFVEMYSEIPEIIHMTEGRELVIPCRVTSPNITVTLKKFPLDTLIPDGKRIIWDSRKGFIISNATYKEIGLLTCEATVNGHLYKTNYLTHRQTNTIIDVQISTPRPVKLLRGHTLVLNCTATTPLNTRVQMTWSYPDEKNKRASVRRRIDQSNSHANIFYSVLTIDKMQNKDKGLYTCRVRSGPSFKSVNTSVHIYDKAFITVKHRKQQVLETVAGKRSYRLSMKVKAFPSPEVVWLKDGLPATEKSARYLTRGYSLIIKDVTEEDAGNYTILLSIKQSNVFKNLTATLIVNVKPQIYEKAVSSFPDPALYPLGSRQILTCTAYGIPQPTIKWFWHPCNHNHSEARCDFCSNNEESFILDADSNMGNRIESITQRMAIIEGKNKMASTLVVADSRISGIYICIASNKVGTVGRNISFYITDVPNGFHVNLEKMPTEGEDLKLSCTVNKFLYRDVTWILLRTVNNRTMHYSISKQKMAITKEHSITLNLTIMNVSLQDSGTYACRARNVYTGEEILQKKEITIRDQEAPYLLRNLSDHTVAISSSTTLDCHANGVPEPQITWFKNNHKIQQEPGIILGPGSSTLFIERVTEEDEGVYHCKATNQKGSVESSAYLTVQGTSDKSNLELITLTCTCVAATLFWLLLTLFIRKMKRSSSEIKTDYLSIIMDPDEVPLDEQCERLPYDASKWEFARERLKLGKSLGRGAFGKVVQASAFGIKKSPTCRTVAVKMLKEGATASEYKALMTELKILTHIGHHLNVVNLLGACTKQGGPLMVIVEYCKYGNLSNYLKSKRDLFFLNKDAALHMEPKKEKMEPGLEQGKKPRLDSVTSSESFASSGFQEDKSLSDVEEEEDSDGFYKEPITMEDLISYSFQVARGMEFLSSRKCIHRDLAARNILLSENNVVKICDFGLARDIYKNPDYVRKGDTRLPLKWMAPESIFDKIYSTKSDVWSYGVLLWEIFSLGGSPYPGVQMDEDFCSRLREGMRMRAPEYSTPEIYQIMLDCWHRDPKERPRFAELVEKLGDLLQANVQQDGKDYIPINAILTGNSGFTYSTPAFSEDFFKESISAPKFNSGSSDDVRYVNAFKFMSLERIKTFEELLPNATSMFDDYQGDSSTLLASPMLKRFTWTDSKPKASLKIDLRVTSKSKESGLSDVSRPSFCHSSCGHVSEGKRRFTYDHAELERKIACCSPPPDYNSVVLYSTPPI
T3 sequence (P04049 whole entry): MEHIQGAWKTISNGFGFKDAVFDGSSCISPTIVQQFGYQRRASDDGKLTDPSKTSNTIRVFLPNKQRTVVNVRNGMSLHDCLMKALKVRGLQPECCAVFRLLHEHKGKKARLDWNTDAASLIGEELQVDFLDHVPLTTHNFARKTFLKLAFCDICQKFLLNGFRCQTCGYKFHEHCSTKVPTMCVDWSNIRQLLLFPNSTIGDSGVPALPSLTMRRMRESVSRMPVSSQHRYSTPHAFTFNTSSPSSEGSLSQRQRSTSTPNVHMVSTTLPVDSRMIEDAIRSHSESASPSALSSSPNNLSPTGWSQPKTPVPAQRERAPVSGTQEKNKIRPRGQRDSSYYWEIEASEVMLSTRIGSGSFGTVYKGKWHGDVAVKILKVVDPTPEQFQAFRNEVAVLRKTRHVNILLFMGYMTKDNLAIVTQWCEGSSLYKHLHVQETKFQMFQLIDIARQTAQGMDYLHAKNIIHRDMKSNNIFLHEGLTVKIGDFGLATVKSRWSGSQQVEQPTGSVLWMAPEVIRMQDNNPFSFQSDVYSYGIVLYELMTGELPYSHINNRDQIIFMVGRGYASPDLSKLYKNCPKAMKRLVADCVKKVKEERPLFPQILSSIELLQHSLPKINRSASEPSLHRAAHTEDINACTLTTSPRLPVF
T23 sequence (P22607 23-806): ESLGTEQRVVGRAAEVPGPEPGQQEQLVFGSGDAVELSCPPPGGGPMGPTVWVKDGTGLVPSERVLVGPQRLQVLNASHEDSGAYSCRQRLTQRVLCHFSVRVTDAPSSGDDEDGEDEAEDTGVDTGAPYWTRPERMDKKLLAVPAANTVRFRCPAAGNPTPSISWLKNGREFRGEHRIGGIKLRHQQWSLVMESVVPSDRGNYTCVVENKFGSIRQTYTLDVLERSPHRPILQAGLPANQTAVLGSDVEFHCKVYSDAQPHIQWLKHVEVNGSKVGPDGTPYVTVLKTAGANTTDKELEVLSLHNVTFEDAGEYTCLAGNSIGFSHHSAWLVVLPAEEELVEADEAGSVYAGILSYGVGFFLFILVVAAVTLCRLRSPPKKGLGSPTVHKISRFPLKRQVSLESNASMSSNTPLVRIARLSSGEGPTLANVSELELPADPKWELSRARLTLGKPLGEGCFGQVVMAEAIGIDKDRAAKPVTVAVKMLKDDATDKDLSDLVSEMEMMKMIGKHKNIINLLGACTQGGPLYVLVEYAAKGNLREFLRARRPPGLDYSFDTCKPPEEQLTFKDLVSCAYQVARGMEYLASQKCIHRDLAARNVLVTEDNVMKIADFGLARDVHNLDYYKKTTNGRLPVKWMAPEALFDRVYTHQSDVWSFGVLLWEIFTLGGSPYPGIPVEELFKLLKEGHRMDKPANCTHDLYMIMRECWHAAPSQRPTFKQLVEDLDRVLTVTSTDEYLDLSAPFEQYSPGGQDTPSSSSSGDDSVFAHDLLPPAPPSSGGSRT
T27 sequence (Q9P1W9 whole entry): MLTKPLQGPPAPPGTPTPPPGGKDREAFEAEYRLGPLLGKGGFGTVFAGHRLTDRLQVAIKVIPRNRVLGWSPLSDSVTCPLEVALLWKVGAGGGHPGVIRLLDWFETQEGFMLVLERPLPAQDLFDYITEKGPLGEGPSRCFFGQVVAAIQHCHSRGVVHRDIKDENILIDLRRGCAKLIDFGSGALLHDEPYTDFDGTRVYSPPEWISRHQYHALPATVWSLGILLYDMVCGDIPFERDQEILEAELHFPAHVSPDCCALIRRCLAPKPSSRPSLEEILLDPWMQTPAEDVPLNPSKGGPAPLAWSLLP
T7 sequence (Q8IYT8 whole entry): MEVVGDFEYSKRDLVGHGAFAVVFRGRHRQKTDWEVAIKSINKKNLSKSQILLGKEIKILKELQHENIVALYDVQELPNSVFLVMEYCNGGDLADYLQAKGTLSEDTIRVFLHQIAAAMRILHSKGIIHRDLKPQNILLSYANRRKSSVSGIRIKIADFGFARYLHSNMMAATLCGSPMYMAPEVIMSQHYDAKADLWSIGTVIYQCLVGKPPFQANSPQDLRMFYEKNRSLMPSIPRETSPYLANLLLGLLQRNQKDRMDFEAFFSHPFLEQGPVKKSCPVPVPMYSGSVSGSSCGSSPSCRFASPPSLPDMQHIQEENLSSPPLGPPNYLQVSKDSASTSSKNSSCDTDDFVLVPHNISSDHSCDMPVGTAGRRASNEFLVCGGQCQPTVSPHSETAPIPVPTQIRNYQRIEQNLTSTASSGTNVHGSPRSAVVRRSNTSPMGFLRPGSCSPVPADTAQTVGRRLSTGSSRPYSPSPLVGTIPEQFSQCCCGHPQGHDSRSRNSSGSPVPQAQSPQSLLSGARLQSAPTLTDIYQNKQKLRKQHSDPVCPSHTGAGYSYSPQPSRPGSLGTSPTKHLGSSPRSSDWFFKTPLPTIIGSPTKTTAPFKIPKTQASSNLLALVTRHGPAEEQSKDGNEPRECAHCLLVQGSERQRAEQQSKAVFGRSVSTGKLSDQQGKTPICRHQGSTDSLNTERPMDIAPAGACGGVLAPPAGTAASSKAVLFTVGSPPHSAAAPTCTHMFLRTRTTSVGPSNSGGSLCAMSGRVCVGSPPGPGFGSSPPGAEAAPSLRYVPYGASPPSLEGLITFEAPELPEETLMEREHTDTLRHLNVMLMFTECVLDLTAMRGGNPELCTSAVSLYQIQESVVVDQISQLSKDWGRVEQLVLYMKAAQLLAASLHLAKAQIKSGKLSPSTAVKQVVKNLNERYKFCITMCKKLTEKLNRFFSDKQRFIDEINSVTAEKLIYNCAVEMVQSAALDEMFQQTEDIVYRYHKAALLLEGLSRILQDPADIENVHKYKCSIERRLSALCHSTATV
T19 sequence (Q8TDC3 whole entry): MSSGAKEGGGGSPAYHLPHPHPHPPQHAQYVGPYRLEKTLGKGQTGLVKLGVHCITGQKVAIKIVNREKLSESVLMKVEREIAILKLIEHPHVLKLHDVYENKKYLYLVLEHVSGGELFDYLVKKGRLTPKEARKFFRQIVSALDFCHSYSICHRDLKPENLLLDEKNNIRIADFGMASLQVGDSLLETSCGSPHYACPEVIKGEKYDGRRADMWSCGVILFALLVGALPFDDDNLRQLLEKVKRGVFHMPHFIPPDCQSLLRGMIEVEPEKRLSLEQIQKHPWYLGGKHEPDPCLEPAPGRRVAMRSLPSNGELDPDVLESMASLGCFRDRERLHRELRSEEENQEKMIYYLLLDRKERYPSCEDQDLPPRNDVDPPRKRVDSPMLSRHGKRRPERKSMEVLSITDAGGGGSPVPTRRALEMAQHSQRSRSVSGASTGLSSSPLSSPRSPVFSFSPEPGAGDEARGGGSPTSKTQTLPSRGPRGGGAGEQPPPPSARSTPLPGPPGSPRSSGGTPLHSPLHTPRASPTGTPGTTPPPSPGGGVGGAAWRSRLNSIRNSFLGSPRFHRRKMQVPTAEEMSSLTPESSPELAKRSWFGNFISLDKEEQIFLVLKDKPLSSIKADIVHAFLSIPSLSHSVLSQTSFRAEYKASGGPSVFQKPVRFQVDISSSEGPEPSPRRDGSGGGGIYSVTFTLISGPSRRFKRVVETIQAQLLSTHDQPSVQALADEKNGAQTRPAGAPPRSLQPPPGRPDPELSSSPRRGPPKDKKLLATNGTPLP

SMILES: CN(C)c1cc(-c2ccncc2)c(-c2ccc3ccccc3c2)nn1 [MW108, N, N-dimethyl-6-(naphthalen-2-yl)-5-(pyridin-4-yl)pyridazin-3-amine]
- activity at 20 µM (ROCK-II): 99%
- activity at 20 µM (CDK7/cyclinH/MAT1): 98%
- IC50 (c-RAF): 9120 nM
- activity at 20 µM (c-RAF): 27%
- activity at 20 µM (IKKα): 105%
- activity at 20 µM (ULK3): 95%
- activity at 20 µM (PIP5K1γ): 104%
- activity at 20 µM (ULK2): 100%
- activity at 20 µM (GSK3α): 90%
- Dose Escalating Adverse Event Screen / Adverse Pharm Dose [1]: ≥ 200 mg/kg
- Dose Escalating Adverse Event Screen / Adverse Pharm Dose ([1]; listed as MW01-11-108SRM): > 200 mg/kg
- activity at 20 µM (MSSK1): 86%
- activity at 20 µM (PRAK): 94%
- activity at 20 µM (ALK4): 95%
- activity at 20 µM (Ret (V804L)): 102%
- activity at 20 µM (EphB3): 96%
- activity at 20 µM (Haspin): 87%
- activity at 20 µM (Tie2): 81%
- activity at 20 µM (HIPK2): 107%
- activity at 20 µM (eEF-2K): 108%
- activity at 20 µM (Pyk2): 106%
- activity at 20 µM (BrSK1): 94%
- activity at 20 µM (PIP4K2α): 96%
- activity at 20 µM (Tie2(R849W)): 77%
- activity at 20 µM (Blk(m)): 88%
- activity at 20 µM (FGFR3): 86%
- activity at 20 µM (Ron): 91%
- activity at 20 µM (Ret): 94%
- IC50 (NLK): 1210 nM
- activity at 20 µM (NLK): 20%
- activity at 20 µM (Pim-2): 93%
- activity at 20 µM (Lyn): 100%
- reference memory deficit, RAWM (reference memory): ameliorated the reference memory deficit
- IC50 (Flt1): > 30000 nM
- activity at 20 µM (Flt1): 38%
- activity at 20 µM (CSK): 93%

SMILES: CN(C)c1cc(-c2ccncc2)c(-c2cccc3ccccc23)nn1 [MW181, N,N-dimethyl-6-(naphthalen-1-yl)-5-(pyridin-4-yl)pyridazin-3-amine]
- activity at 20 µM (ROCK-II): 108%
- activity at 20 µM (CDK7/cyclinH/MAT1): 99%
- activity at 20 µM (c-RAF): 70%
- activity at 20 µM (IKKα): 112%
- activity at 20 µM (ULK3): 106%
- activity at 20 µM (PIP5K1γ): 100%
- activity at 20 µM (ULK2): 101%
- activity at 20 µM (GSK3α): 95%
- Dose Escalating Adverse Event Screen / Adverse Pharm Dose [1]: ≥ 200 mg/kg
- Dose Escalating Adverse Event Screen / Adverse Pharm Dose ([1]; listed as MW01-10-181SRM): > 200 mg/kg
- activity at 20 µM (MSSK1): 100%
- activity at 20 µM (PRAK): 105%
- activity at 20 µM (ALK4): 101%
- activity at 20 µM (Ret (V804L)): 102%
- activity at 20 µM (EphB3): 102%
- activity at 20 µM (Haspin): 93%
- activity at 20 µM (Tie2): 99%
- activity at 20 µM (HIPK2): 102%
- activity at 20 µM (eEF-2K): 98%
- activity at 20 µM (Pyk2): 101%
- activity at 20 µM (BrSK1; at 20,000 nM inhibitor, kinase activity remaining, read-out: % Activity): 94%
- activity at 20 µM (PIP4K2α): 97%
- activity at 20 µM (Tie2(R849W)): 99%
- activity at 20 µM (Blk(m)): 100%
- activity at 20 µM (FGFR3): 118%
- activity at 20 µM (Ron): 94%
- activity at 20 µM (Ret): 118%
- IC50 (NLK): 206 nM
- activity at 20 µM (Pim-2): 103%
- activity at 20 µM (Lyn): 93%
- reference memory deficit, RAWM (reference memory): ameliorated the reference memory deficit
- activity at 20 µM (Flt1): 96%
- activity at 20 µM (CSK): 111%

Reference: paper PMC3694096, “Development of Novel In Vivo Chemical Probes to Address CNS Protein Kinase Involvement in Synaptic Dysfunction” (PLoS ONE, 2013)
